{"source": "paper PMC5554537", "about": "(Frontiers in Pharmacology, 2017)", "key": {"CHO/POR cells": {"tested_on": "CHO/POR cells", "experiment": "Redox cycling: non-respiratory O2 consumption and H2O2 generation", "assay_type": "cell-based", "details": "rotenone-inhibited aerobic CHO/POR cells, cumulative addition", "procedure": "(§1) The Chinese hamster ovary cell line 51D1.3 (herein called CHO) and a stable transfectant expressing a soluble form of human P450 oxidoreductase (51D1.3/sPOR, herein called CHO/POR) ([Gu et al., 2009]), were grown in spinner flasks in αMEM plus 5% fetal bovine serum. Late log phase cultures were harvested by centrifugation, resuspended at 5 × 10^5 cells/mL in phenol red-free high-glucose DMEM (Invitrogen) supplemented with 4 mM Glutamax-1, 1 mM sodium pyruvate and 5% FBS. Stirred cell suspensions (2 mL) were transferred to an OXYBOROS O2K oxygraph for simultaneous polarographic measurement of non-respiratory O2 consumption and fluorimetric measurement of H2O2 generation as previously ([Hunter et al., 2012]). Bovine liver superoxide dismutase (10 U), horseradish peroxidase (10 U), Amplex UltraRed (50 nmol) and rotenone (1 nmol), all from Molecular Probes Invitrogen (Eugene, OR), were injected and cumulative drug additions (from saline stock solutions) were made every ∼5 min once endogenous rates had stabilized. Signals were recorded every 2 s, and flux derivatives were estimated ∼2 min after each addition using a Savitzky–Golay smoothing filter (40 data point window) in DATLAB version 4.3.\n(§2) Supplementary Figure 4. Time-dependent changes in oxy gen consu mption and H2O2 formation rates induced by SN30000 in rotenone-inhibited CHO/POR cell suspensions, monitored with an OXYBOROS O2K oxygraph. Conditions of the experiment were identical to Fig. 5 except that SN30000 was added as a single bolus to separate cell suspension, rather than by cu mulative addition. A: Representative traces for oxygen consu mption and H2O2 formation rates for a single culture when SN30000 was added to a final concentration of 600 µM, at 4 min. Peak rates were established within 2 min, followed by a decline to a new steady state at approximately 1/3rd of the maximu m rate. Cell viability was > 97% by try pan […]\n(§3) killing. […]"}, "HT29 tumor cells": {"tested_on": "HT29 tumor cells", "parameters": "method as in Hicks et al., 2010", "details": "stirred suspensions of HT29 tumor cells; ref Hicks et al., 2010; cited from earlier work"}, "Urinary excretion": {"experiment": "Urinary excretion", "assay_type": "in vivo, NIH-III mice", "details": "for Urinary excretion, % of administered dose: 24 h", "description": "Mice (20–25 g body weight) were dosed i.p. or by slow bolus (10–20 s) i.v. injection via a lateral tail vein, with co-administration of ^3H-mannitol (0.025 μmol/kg; 67 MBq/g) in some studies as a marker of renal function. For evaluation of acute toxicity, mice were observed continuously for 3 h after dosing, and their activity rated on a lethargy score from 0 representing no change in activity to 5 representing animals that were moribund and required culling. For MTD studies, the animals were checked daily for clinical signs of toxicity and body weight change for 2 weeks. In some studies rectal temperature changes after dosing were measured using a BAT-12 digital microprobe thermometer (Physitemp Instruments, Clifton, NJ, United States) at the times specified in the figures. Blood samples were collected from mice at various times by cardiac puncture, seconds after cervical dislocation, into ice-cold tubes containing K2EDTA. These were placed on ice immediately after collection and centrifuged (3,000 g, 3 min) within 10 min to harvest plasma. Plasma and tissues were rapidly frozen in liquid nitrogen before storage at -80°C for subsequent bioanalysis. Urine samples were collected from mice housed individually in metabolic cages (Minor Metabowl, Jencons, United Kingdom; one animal per cage) with continuous access to food and water."}, "[1]": {"experiment": "Reductive metabolism in liver S9 preparations", "assay_type": "in vitro ADME, NIH-III mice", "details": "for Rate of reduction to M14: 20 μg/ml protein", "procedure": "In vitro hepatic metabolism of SN30000 and M14 was studied using 9,000 g post-mitochondrial supernatants (S9) prepared from livers of female NIH-III mice. Metabolism at 37°C was measured by dilution of S9 to appropriate protein concentrations (measured by BCA protein assay) in sodium/potassium phosphate buffer (67 mM phosphate, pH 7.4) containing 5 mM MgCl2, 1 mM EDTA, 1 mM NADPH, 1 mM NADH and 150 μM test drug. The reaction was terminated by adding an equal volume of ice-cold MeOH and samples were analyzed by LC-MS/MS. Two methods were used to modify the oxygen concentration. Method 1: 96-well plates (reaction volume 0.1 mL/well) were incubated for 30 min on a Eppendorf Thermomixer C (Eppendorf AG, Hamburg, Germany) either under 21% O2 (oxia) or 95% N2/5% CO2 (anoxia) in an anaerobic chamber (Sheldon Manufacturing, Cornelius, OR, United States) as described previously ([Gu et al., 2010]). Method 2: glass vials containing 3 mL final volume were magnetically stirred continuously in a water bath under flowing 5% CO2 containing 0, 0.2, 2, or 20% O2 (certified gas mixtures from BOC Gasses NZ), as detailed previously ([Hicks et al., 2007]), and samples (0.1 mL) were withdrawn at intervals for analysis.\nTo address whether this reflects an oxygen-sensitive (one-electron reduction) or oxygen-insensitive (two-electron reduction) process, metabolism was compared in NIH-III mouse liver S9 preparations under 20% O2 or anoxia. […] Using low protein concentrations (20 μg/ml) to enable assessment of initial rates, reduction to M14 was similar for anoxic liver S9 preparations from male and female NIH-III mice (10.6 ± 0.2 and 9.2 ± 0.2 nmol/min/mg protein, respectively). […] The liver S9 intrinsic clearance, CLint, was calculated as Vmax/Km for M14 formation under anoxia and scaled to the whole liver based on the (unrealistic) assumption that the liver is entirely anoxic. This upper estimate of in vivo hepatic clearance was then predicted as previously described ([Gu et al., 2011b]) using the free fraction of SN30000 in mouse plasma determined by equilibrium dialysis (Supplementary Table 11)."}, "NIH-III mice": {"tested_on": "NIH-III mice", "parameters": "method as in Gu et al., 2014", "details": "ref Gu et al., 2014, cited from earlier work; for Survival: 14 days"}, "[2]": {"experiment": "Redox cycling: non-respiratory O2 consumption and H2O2 generation", "assay_type": "cell-based", "details": "Chinese hamster; CHO/POR cells, 600 µM single bolus; read-out: Cell viability by trypan blue at end of exposure", "procedure": "as §1, §2, §3"}, "Wistar rats": {"tested_on": "Wistar rats", "experiment": "Rectal temperature and MTD in rats", "assay_type": "in vivo", "details": "single i.v. dose of 90 mg/kg, preliminary"}, "[3]": {"experiment": "Rectal temperature and MTD in rats", "assay_type": "in vivo", "details": "rat, in vivo, iv; Wistar rats, single i.v. dose"}}, "note": "Where two headings read alike, the source gives them in different places."}
{"smiles": "[O-][n+]1nc(CCCN2CCOCC2)nc2cc3c(cc21)CCC3", "note": "[M14]", "values": [{"measurement": "Non-respiratory O2 consumption and H2O2 generation (redox cycling)", "setting": "CHO/POR cells", "result": "much lower rates than for SN30000"}]}
{"smiles": "[O-][n+]1nc(CCCN2CCOCC2)[n+]([O-])c2cc3c(cc21)CCC3", "note": "[SN30000, 3-(3-Morpholinopropyl)-7,8-dihydro-6H-indeno[5,6-e][1,2,4]triazine 1,4-dioxide]", "values": [{"measurement": "O2 in solution for 50% inhibition of cytotoxicity", "setting": "HT29 tumor cells", "result": "1.14 ± 0.24", "unit": "µM"}, {"measurement": "Urinary excretion, % of administered dose", "setting": "Urinary excretion; 18.6 mg/kg i.p.", "result": "3.38 ± 0.03", "unit": "%"}, {"measurement": "Urinary excretion, % of administered dose", "setting": "Urinary excretion; 186 mg/kg i.p.", "result": "5.64 ± 0.02", "unit": "%"}, {"measurement": "Urinary excretion, % of injected dose", "setting": "Urinary excretion; by 24 h, dose not stated", "result": "~5", "unit": "%"}, {"measurement": "Rate of reduction to M14", "setting": "[1]; anoxic liver S9 from female mice", "result": "9.2 ± 0.2", "unit": "nmol/min/mg protein"}, {"measurement": "Rate of reduction to M14", "setting": "[1]; anoxic liver S9 from male mice", "result": "10.6 ± 0.2", "unit": "nmol/min/mg protein"}, {"measurement": "Vmax for formation of M14", "setting": "[1]; anoxic mouse liver S9", "result": "71 ± 2", "unit": "nmol/min/mg protein"}, {"measurement": "Predicted hepatic clearance", "setting": "[1]; dispersion model", "result": 78.2, "unit": "mL/min/kg"}, {"measurement": "Km", "setting": "[1]; female, NIH-III, liver S9 (9,000 g post-mitochondrial supernatant), pH 7.4, anoxic mouse liver S9, read-out: Apparent Km for formation of M14", "result": "974 ± 71", "unit": "µM"}, {"measurement": "Predicted hepatic clearance", "setting": "[1]; parallel tube model", "result": 83.5, "unit": "mL/min/kg"}, {"measurement": "Predicted hepatic clearance", "setting": "[1]; well-stirred model, from anoxic S9 CLint, liver assumed entirely anoxic", "result": 65.2, "unit": "mL/min/kg"}, {"measurement": "Survival", "setting": "NIH-III mice; female, 562 µmol/kg i.p.", "result": "6/6"}, {"measurement": "Body weight nadir, Day", "setting": "NIH-III mice; female, 562 µmol/kg i.p.", "result": 1}, {"measurement": "Body weight nadir, Weight loss", "setting": "NIH-III mice; female, 562 µmol/kg i.p.", "result": "8.4 ± 1.7", "unit": "%"}, {"measurement": "Survival", "setting": "NIH-III mice; female, 750 µmol/kg i.p.", "result": "1/2"}, {"measurement": "Body weight nadir, Day", "setting": "NIH-III mice; female, 750 µmol/kg i.p.", "result": 2}, {"measurement": "Body weight nadir, Weight loss", "setting": "NIH-III mice; female, 750 µmol/kg i.p.", "result": 14.4, "unit": "%"}, {"measurement": "Survival", "setting": "NIH-III mice; female, 1000 µmol/kg i.p.", "result": "0/1"}, {"measurement": "Survival", "setting": "NIH-III mice; male, 562 µmol/kg i.p.", "result": "7/7"}, {"measurement": "Body weight nadir, Day", "setting": "NIH-III mice; male, 562 µmol/kg i.p.", "result": 1}, {"measurement": "Body weight nadir, Weight loss", "setting": "NIH-III mice; male, 562 µmol/kg i.p.", "result": "4.2 ± 1.2", "unit": "%"}, {"measurement": "Survival", "setting": "NIH-III mice; male, 750 µmol/kg i.p.", "result": "2/3"}, {"measurement": "Body weight nadir, Day", "setting": "NIH-III mice; male, 750 µmol/kg i.p.", "result": 1}, {"measurement": "Body weight nadir, Weight loss", "setting": "NIH-III mice; male, 750 µmol/kg i.p.", "result": "12.1 ± 3.8", "unit": "%"}, {"measurement": "Survival", "setting": "NIH-III mice; male, 1000 µmol/kg i.p.", "result": "1/2"}, {"measurement": "Body weight nadir, Day", "setting": "NIH-III mice; male, 1000 µmol/kg i.p.", "result": 1}, {"measurement": "Body weight nadir, Weight loss", "setting": "NIH-III mice; male, 1000 µmol/kg i.p.", "result": 13.3, "unit": "%"}, {"measurement": "Survival", "setting": "NIH-III mice; male, 1333 µmol/kg i.p.", "result": "1/2"}, {"measurement": "Body weight nadir, Day", "setting": "NIH-III mice; male, 1333 µmol/kg i.p.", "result": 1}, {"measurement": "Body weight nadir, Weight loss", "setting": "NIH-III mice; male, 1333 µmol/kg i.p.", "result": 11.6, "unit": "%"}, {"measurement": "viability at 600 µM", "setting": "[2]", "result": "> 97", "unit": "%"}, {"measurement": "Non-respiratory O2 consumption and H2O2 generation (redox cycling)", "setting": "CHO/POR cells", "result": "strongly stimulated O2 consumption and H2O2 formation"}, {"measurement": "Decrease in rectal temperature", "setting": "Wistar rats", "result": "~2.5", "unit": "°C"}, {"measurement": "MTD", "setting": "[3]", "result": 90, "unit": "mg/kg"}]}
